According to US20060167048A1, “N-4-piperidinyl compounds as ccr5 modulators” (priority 2002, published 2006):

How the values were obtained:
[1] = biological target: recombinant human CCR5 receptor (Homo sapiens, UniProt P51681); experiment: in vitro radioligand binding assay, inhibition of binding of iodinated RANTES or MIP-1α (scintillation proximity); conditions: membranes from Chinese hamster ovary cells expressing recombinant human CCR5; 0.1 nM iodinated RANTES or MIP-1α; read-out: IC50 (concentration of compound which displaced 50% of bound iodinated RANTES or MIP-1α)
Experimental: The ability of compounds to inhibit the binding of RANTES or MIP-1α was assessed by an in vitro radioligand binding assay. Membranes were prepared from Chinese hamster ovary cells which expressed the recombinant human CCR5 receptor. These membranes were incubated with 0.1 nM iodinated RANTES or MP-1α, scintillation proximity beads and various concentrations of the compounds of the invention in 96-well plates. The amount of iodinated RANTES or MIP-1α bound to the receptor was determined by scintillation counting. Competition curves were obtained for compounds and the concentration of compound which displaced 50% of bound iodinated RANTES or MIP-1α was calculated (IC50).

Chain of recombinant human CCR5 receptor (P51681 whole entry): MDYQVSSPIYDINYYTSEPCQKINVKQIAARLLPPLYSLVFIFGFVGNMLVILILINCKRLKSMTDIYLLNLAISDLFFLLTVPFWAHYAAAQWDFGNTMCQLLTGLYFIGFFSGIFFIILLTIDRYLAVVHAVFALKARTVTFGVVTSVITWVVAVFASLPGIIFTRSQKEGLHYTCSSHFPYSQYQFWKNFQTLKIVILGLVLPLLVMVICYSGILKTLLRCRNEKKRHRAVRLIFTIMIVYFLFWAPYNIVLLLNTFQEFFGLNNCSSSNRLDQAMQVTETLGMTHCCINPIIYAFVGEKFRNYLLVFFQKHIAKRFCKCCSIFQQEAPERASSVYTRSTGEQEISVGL

| IC50 [1] [nM] | melting point [°C] | Compound |
| --- | --- | --- |
| 39 | – | CCN(C(=O)Cc1ccc(S(C)(=O)=O)cc1)C1CCN(CC[C@H](NC(=O)C2CCN(C(C)=O)CC2)c2ccccc2)CC1 [Compound 1 of Table I, (S)-1-acetyl-piperidine-4-carboxylic acid [3-(4-{ethyl-[2-(4-methanesulfonyl-phenyl)-acetyl]-amino}-piperidin-1-yl)-1-phenyl-propyl]-amide] |
| – | 115 to 116 | CCN(C(=O)Cc1ccc(S(C)(=O)=O)cc1)C1CCN(CC[C@H](NC(=O)OC(C)(C)C)c2ccccc2)CC1 [Compound 1 of Table II, (S)-[3-(4-{ethyl-[2-(4-methanesulfonyl-phenyl)-acetyl]-amino}-piperidin-1-yl)-1-phenyl-propyl]-carbamic acid tert-butyl ester] |
| 110 | – | CCN(C(=O)Cc1ccc(S(C)(=O)=O)cc1)C1CCN(CC[C@H](NC(=O)OCCOC)c2ccccc2)CC1 [Compound 3 of Table II] |
| 28 | – | CCN(C(=O)Cc1ccc(S(C)(=O)=O)cc1)C1CCN(CC[C@H](NC(=O)C2CCN(S(C)(=O)=O)CC2)c2ccccc2)CC1 [Compound 5 of Table I] |
